Laboratory results published in PubChem BioAssay (NCI).
Several values for one entry are separate records, joined by “and”; a condition that tells them apart may be missing. Identical values can stand only once.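 Protocol summary: plate cells (96-well), add compound at 5 concentrations, incubate 48 h, interpolate endpoints linearly. Abbreviation: GI50, concentration required for 50% inhibition of growth. TGI denotes the concentration required for complete inhibition of growth.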

How the values were obtained:
Experiment in all cases: growth of human tumour cells (NCI), 48 h
786-0 renal = tested on: 786-0 renal
HL-60(TB) leukemia = tested on: HL-60(TB) leukemia
KM12 colon = tested on: KM12 colon
SK-MEL-28 melanoma = tested on: SK-MEL-28 melanoma
SK-OV-3 ovarian = tested on: SK-OV-3 ovarian
SW-620 colon = tested on: SW-620 colon
TK-10 renal = tested on: TK-10 renal
UACC-62 melanoma = tested on: UACC-62 melanoma
MDA-MB-231 breast = tested on: MDA-MB-231 breast
MCF7 breast = tested on: MCF7 breast

Row | SMILES | TGI (786-0 renal) | TGI (HL-60(TB) leukemia) | TGI (KM12 colon) [µM] | TGI (SK-MEL-28 melanoma) [µM] | TGI (SK-OV-3 ovarian) | TGI (SW-620 colon) [µM] | TGI (TK-10 renal) | TGI (UACC-62 melanoma) [µM] | GI50 (786-0 renal) [µM] | GI50 (KM12 colon) [µM] | GI50 (MDA-MB-231 breast) [µM] | TGI (MDA-MB-231 breast) [µM] | GI50 (HL-60(TB) leukemia) [µM] | GI50 (MCF7 breast) [µM] | TGI (MCF7 breast) | GI50 (SK-MEL-28 melanoma) [µM] | GI50 (SK-OV-3 ovarian) [µM] | GI50 (SW-620 colon) [µM] | GI50 (UACC-62 melanoma) [µM] | GI50 (TK-10 renal) [µM]
1 | FC(F)(F)c1nc(-c2ccccc2Cl)[nH]c1C(F)(F)F | 4.73 µM | 1.22 µM | 4.13 | 5.32 | 2.45 µM | 6.63 | 14.5 µM | 3.8 | – | – | – | – | – | – | – | – | – | – | – | –
2 | Cn1cc(NC(=O)c2cc(NC(=O)CCCCCCCCCCC(=O)Nc3cc(C(=O)Nc4cc(C(=O)NCCC(=N)N)n(C)c4)n(C)c3)cn2C)cc1C(=O)NCCC(=N)N | > 100 µM | – | > 100 | – | > 100 µM | 55 | 87.9 µM | > 100 | – | – | – | – | – | – | – | – | – | – | – | –
3 | CCC(C)C1NC(=O)c2nc(oc2-c2ccccc2)-c2csc(n2)-c2csc(n2)-c2nc(oc2C)-c2coc(n2)CNC(=O)C(C(C)CC)NC1=O (stereo not given) | 0.172 µM | – | 0.119 | – | – | 0.0324 | – | – | 0.0499 | 0.0223 | 0.035 | 0.135 | – | – | – | – | – | – | – | –
4 | CC(=O)OCC1OC(O[C@@H]2C[C@H]3C(C)(C)[C@H](OC(C)=O)CC[C@]3(C)[C@H]3CCC4=C([C@@H](C)C[C@@H](O)[C@H](O)C(C)(C)O)CC[C@@]4(C)[C@@]32C)C(O)C(O)C1O (stereo not given in full) | 32.7 µM | 28.8 µM | 37.1 | 30.9 | 32.1 µM | 30.7 | – | 25.1 | 18.2 | 22.6 | 11.6 | 23.8 | 13 | 2.89 | 11.9 µM | 17 | 17.9 | 16.8 | 12.6 | –
5 | Cc1cc2c(cc1C)[n+](=O)c(C(=O)C/C(=N/NC(=O)c1ccccc1O)C(=O)Nc1ccccc1C(C)C)c(C)n2[O-] | > 100 µM | 37.9 µM | > 100 | > 100 | > 100 µM | > 100 | > 100 µM | > 100 | – | – | – | – | – | – | – | – | – | – | – | –
6 | COc1ccc(-c2cc(-c3cc(Cl)ccc3Cl)nc3[nH]c(-c4cc(F)c(Cl)cc4Cl)cc(=O)c23)cc1 | 52 µM | – | 67.1 | > 100 | > 100 µM | > 100 | – | 93.4 | 20.4 | 21.7 | 20.7 | 83.8 | – | 60.9 | > 100 µM | > 100 | 84.6 | 20 | 14.3 | –
7 | N#CC1(c2nc3ccccc3o2)C(=O)C(=O)N(C2C3CC4CC(C3)CC2C4)C(=O)C1=O (stereo not given) | > 100 µM | > 100 µM | > 100 | > 100 | > 100 µM | > 100 | > 100 µM | > 100 | – | – | – | – | – | – | – | – | – | – | – | –
8 | CCOC(=O)C1=C(C)Nc2ccccc2S1 | > 100 µM | – | > 100 | > 100 | > 100 µM | > 100 | > 100 µM | > 100 | – | – | – | – | – | – | – | – | – | – | – | –
9 | N#Cc1c(-c2cccs2)c2c(=S)[nH]c(=S)[nH]c2[nH]c1=S | > 100 µM | 47.9 µM | > 100 | > 100 | > 100 µM | 81 | > 100 µM | > 100 | 36.4 | 28.6 | 39 | > 100 | 15.4 | – | – | 22.4 | 46 | 32.8 | 36.3 | 90.7
10 | CN(C)/C(=N/C(=S)Nc1ccccc1)SCc1ccccc1 | > 100 µM | 51.4 µM | > 100 | > 100 | > 100 µM | > 100 | > 100 µM | > 100 | – | – | – | – | – | – | – | – | – | – | – | –
11 | COc1ccc2cc1Oc1ccc(cc1)C[C@H]1c3cc(c(OC)cc3CCN1C)Oc1c(OC)c(OC)cc3c1[C@H](C2)N(C)CC3 | 12.4 µM and 18 µM and > 100 µM | 16.1 µM and 23.8 µM and > 100 µM | – | – | 15.3 µM and 34 µM and > 100 µM | – | 15.6 µM and 25.2 µM and 53.5 µM | – | 5.1 | – | 2.19 | – | – | 5.27 | 14 µM and 17.8 µM and > 100 µM | – | 17.6 | – | – | 12.7
12 | CCCCCCCCCCCCCCCC(=O)NCC(COP(=O)([O-])OCC[N+](C)(C)C)OCC (stereo not given) | 5.82 µM | – | 3.01 | 36.6 | 42.6 µM | 27.4 | 3.95 µM | 22.3 | – | – | – | – | – | – | – | – | – | – | – | –
13 | COC(=O)C(C#N)=C1c2ccccc2Oc2ccccc21 | > 100 µM | 56.4 µM | > 100 | > 100 | > 100 µM | > 100 | > 100 µM | > 100 | – | – | – | – | – | – | – | – | – | – | – | –
14 | CCCCCCCCCCCCC(=O)OC(c1cnco1)c1nc(C(O)CC(O)C(O)C(C)O)co1 (stereo not given) | > 100 µM | 25.4 µM | 21.9 | > 64.2 | > 100 µM | > 62.7 | > 76.5 µM | 2.87 | 1.02 | 0.359 | – | – | 0.544 | – | – | 0.686 | 4.64 | 0.566 | 0.896 | 5.04
15 | COC(=O)C(c1[nH]nc2ccccc12)C(C(=O)OC)c1[nH]nc2ccccc12 (stereo not given) | > 100 µM | 50.5 µM | > 100 | > 100 | > 100 µM | 33.7 | > 100 µM | > 100 | – | – | – | – | – | – | – | – | – | – | – | –
16 | C=C1C(O)C2CCC(C)(C)C(=O)C2=C(CC(C)C)C12CC2 (stereo not given) | > 100 µM | – | > 100 | > 100 | > 100 µM | > 100 | > 100 µM | > 100 | > 100 | 47.1 | 91.8 | > 100 | – | 35 | > 100 µM | 43.6 | > 100 | 42 | 90.8 | 67.9
17 | N#Cc1c(NC(=O)c2cccc(C(F)(F)F)c2)sc2c1CCC(=O)C2 | 5.85 µM | 3.56 µM | 1.95 | 1.92 | 6.19 µM | 1.83 | 2.34 µM | 2.14 | 0.716 | 0.477 | 1.39 | 3.31 | 0.576 | – | – | 0.526 | 2.3 | 0.3 | 0.495 | 0.543
18 | C=C1C(=O)O[C@H]2[C@H]1CC/C(CNC(=O)c1c[nH]c3ccc(F)cc13)=C\CC[C@@]1(C)O[C@@H]21 | 2.85 µM | 5.95 µM | 10.2 | 3.16 | 22.7 µM | 2.1 | – | 3.03 | 1.33 | 2.69 | 1.46 | 3.58 | 2.18 | – | – | 1.33 | 10.8 | 0.639 | 1.27 | –
